This note sets out measurements from patent US9107396B2, “Stabilized synthetic brood pheromone and race-specific ratios of components for manipulating the behavior and physiology of honey bees” (OMS Investments, Inc., priority 2006, dated 2015).

A short description of the data set: Chemical stability of simplified brood pheromone ester blends exposed to air, capillary gas chromatography. The note with it: for time for which the component remained intact: with antioxidant stabilizer tertiary-butylhydroquinone; for proportional composition of the total blend at start: two-week test; for percentage composition at start / percentage composition after 72 weeks: unstabilized five-component ethyl ester blend; for percentage composition at start: 72-week test. Format: physicochemical. On the procedure:
Short-term and long-term stability studies were conducted, with simplified blends of potentially unstable brood pheromone components mixed in approximately the same proportions as in Example 1. Short-term evaluation for a two-week duration was done on blends of methyl oleate, methyl linoleate and methyl linolenate, and ethyl oleate, ethyl linoleate and ethyl linolenate, each with and without tertiary-butylhydroquinone. Twenty-week tests were done with identical blends as for the two-week experiments, but 72-week tests had methyl and ethyl palmitate and stearate added in the appropriate proportions to their respective blends. Approximately 250 mg of a blend was placed in a 4 mL (15×45 mm) plastic vial (Chromatographic Specialties) fitted with a diffusion insert screw cap (Agilent Technologies) with a 1 mm diameter hole to allow air circulation over the sample. All blends were continuously held at a constant temperature of 30° C.
For analysis by capillary gas chromatography, approximately 1 mg of a blend was dissolved in 1 mL of diethyl ether, and a 1 μL aliquot of each extract was analyzed. Analyses were done at time zero and after the given duration of exposure to air at 30° C., using a Hewlett Packard HP5890 gas chromatograph equipped with a flame ionization detector and a 30 m long BPX-70 capillary column (J&W Scientific). The injector and detector temperatures were 260° C. and 285° C., respectively. The temperature program was 80° C. rising at 5° C. per min for 24 min to 200° C., and then rising at 20° C. per min for 3 min to 260° C.
Two-week results are given for methyl and ethyl esters (FIGS. 1 and 2), while long-term 20-week and 72-week results are given for only ethyl esters (FIGS. 3 and 4). Long-term results for methyl esters were virtually identical to those for the ethyl esters.

The mark [1] stands for this setting: unstabilized blend, after two weeks exposure to air.
The mark [2] stands for this setting: unstabilized blend, before exposure.

Turning to `CCCCC/C=C\C/C=C\CCCCCCCC(=O)OCC` [ethyl linoleate], the “time for which the component remained intact” value came to 72 weeks. Besides, the “decrease in amount of component in the unstabilized blend” value (shortened to “decrease in amount of component”) (2 weeks) stood at 74%. Further, the “component remaining in the unstabilized blend after 20 weeks” value (3360 h) is given as “no ethyl linoleate”. Where the note is “12096 h”, the “component remaining in the unstabilized blend after 72 weeks” value is “complete breakdown”.

Take `CCCCC/C=C\C/C=C\CCCCCCCC(=O)OC` [methyl linoleate]: the “time for which the component remained intact” value is on record as 72 weeks. For the same compound, the “decrease in amount of component” value (2 weeks) is recorded as 85%.

`CCCCCCCC/C=C\CCCCCCCC(=O)OC` [methyl oleate]: the “time for which the component remained intact” value is listed as 72 weeks. Besides, under setting [1], the “proportional composition of the total blend after two weeks” value is given as 82%. Under setting [2], the “proportional composition of the total blend at start” value was 48%.

Turning to `CCCCCCCCCCCCCCCCCC(=O)OCC` [ethyl stearate], the “percentage composition after 72 weeks” value is given as 57%. The “percentage composition at start” value (before exposure) is given as 23%.

As to `CC/C=C\C/C=C\C/C=C\CCCCCCCC(=O)OC` [methyl linolenate], the “time for which the component remained intact” value was determined as 72 weeks. Moreover, for the setting “2 weeks”, the “decrease in amount of component” value is given as 90%.

As to `CC/C=C\C/C=C\C/C=C\CCCCCCCC(=O)OCC` [ethyl linolenate], the “time for which the component remained intact” value is recorded as 72 weeks. The “decrease in amount of component” value under setting [1] turned out to be 94%. Besides, the “component remaining in the unstabilized blend after 20 weeks” value (unstabilized ethyl ester blend, 20 weeks) is “no ethyl linolenate remained”. Also, the “component remaining in the unstabilized blend after 72 weeks” value (unstabilized ethyl ester blend, 72 weeks) is recorded as “complete breakdown”.

On to `CCCCCCCC/C=C\CCCCCCCC(=O)OCC` [ethyl oleate], for which the “percentage composition after 72 weeks” value came out at 10% and the “time for which the component remained intact” value came to 72 weeks. The “proportional composition of the total blend after two weeks” value under setting [1] was 66%. Under setting [2], the “proportional composition of the total blend at start” value was 40%. Moreover, the “proportion of the total blend at start” value (unstabilized ethyl ester blend, 20-week test, before exposure) is 37%. Also, where the note is “unstabilized ethyl ester blend, after 20 weeks”, the “proportion of the total blend after 20 weeks” value is recorded as 43%. For the same compound, the “percentage composition at start” value (before exposure) was 24%.

For the compound `CCCCCCCCCCCCCCCC(=O)OCC` [ethyl palmitate], the “percentage composition after 72 weeks” value was determined as 20%. Besides, for the setting “before exposure”, the “percentage composition at start” value worked out at 8%.
